We go through 18 compounds from ChEMBL document CHEMBL3588818 (Eur J Med Chem, 2015).

The target of assay [1] is Sigma non-opioid intracellular receptor 1 (Rattus norvegicus, UniProt Q9R0C9). As to the kind of experiment: Displacement of […] from sigma1 receptor in Sprague-Dawley rat cortical membranes incubated for 2 hrs by liquid scintillation counting based competitive radioligand binding assay. The conditions noted are these: read-out: Ki(app).
The nature of assay [2]: Displacement of [3H]DTG from sigma2 receptor in Sprague-Dawley rat liver membranes incubated for 2 hrs in presence of dextrallorphan by liquid scintillation counting based competitive radioligand binding assay. The conditions noted are these: read-out: Ki(app). On the technique in general: Displacement assays read how much labelled ligand stays bound in the presence of the test substance.

Assay [3] has as its system PC-12. Kind of assay: Selectivity index, ratio of Ki for sigma2 receptor in Sprague-Dawley rat liver membranes to Ki for rat VAChT expressed in PC12 cell membranes. In kind it is cell-based.
In assay [4] the test system is PC-12. As to the kind of experiment: Selectivity index, ratio of Ki for sigma1 receptor in Sprague-Dawley rat cortical membranes to Ki for rat VAChT expressed in PC12 cell membranes. In kind it is cell-based.
Assay [5] has as its target T1, Vesicular acetylcholine transporter (Rattus norvegicus, UniProt Q62666).
T1 sequence (Q62666 whole entry): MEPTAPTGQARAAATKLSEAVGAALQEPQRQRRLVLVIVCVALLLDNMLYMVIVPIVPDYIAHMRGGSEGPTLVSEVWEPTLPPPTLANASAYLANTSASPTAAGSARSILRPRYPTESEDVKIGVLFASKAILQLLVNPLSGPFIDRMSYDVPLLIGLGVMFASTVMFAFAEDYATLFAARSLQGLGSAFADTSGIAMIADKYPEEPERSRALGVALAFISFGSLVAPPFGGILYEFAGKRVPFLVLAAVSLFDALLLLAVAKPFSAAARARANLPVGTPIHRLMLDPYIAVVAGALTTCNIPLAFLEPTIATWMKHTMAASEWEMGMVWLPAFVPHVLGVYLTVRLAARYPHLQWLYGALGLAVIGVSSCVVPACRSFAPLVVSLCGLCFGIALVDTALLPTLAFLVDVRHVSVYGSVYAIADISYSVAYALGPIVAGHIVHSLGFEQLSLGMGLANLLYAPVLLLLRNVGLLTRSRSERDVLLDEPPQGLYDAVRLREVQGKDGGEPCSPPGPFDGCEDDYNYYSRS
Kind of assay: Displacement of (-)-[3H]vesamicol from rat VAChT expressed in PC12 cell membranes incubated for 2 hrs by liquid scintillation counting based competitive radioligand binding assay. The conditions noted are these: read-out: Ki(app). On the set-up: species or system PC-12.

For assay [6], the target named is T2, Vesicular acetylcholine transporter (Torpedo californica, UniProt P81721).
T2 sequence (P81721 whole entry): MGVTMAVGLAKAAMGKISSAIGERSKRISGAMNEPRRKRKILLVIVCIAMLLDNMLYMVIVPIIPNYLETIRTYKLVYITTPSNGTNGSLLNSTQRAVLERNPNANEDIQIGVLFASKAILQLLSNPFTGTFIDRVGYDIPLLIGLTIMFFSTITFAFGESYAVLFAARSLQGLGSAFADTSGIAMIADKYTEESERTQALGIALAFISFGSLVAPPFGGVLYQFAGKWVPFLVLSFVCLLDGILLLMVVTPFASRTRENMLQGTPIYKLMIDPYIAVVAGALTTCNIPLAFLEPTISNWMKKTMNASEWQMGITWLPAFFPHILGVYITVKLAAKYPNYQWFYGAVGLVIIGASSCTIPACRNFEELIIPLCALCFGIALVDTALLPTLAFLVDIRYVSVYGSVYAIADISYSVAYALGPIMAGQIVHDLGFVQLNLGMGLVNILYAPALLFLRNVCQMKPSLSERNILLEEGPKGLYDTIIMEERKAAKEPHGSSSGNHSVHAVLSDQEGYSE
Kind of assay: Displacement of (-)-[3H]vesamicol from VAChT in Torpedo californica electric organ synaptic vesicles. On the set-up: species or system Tetronarce californica. The conditions noted are these: read-out: Ki(app).

Sigma non-opioid intracellular receptor 1, sequence (Q9R0C9 whole entry): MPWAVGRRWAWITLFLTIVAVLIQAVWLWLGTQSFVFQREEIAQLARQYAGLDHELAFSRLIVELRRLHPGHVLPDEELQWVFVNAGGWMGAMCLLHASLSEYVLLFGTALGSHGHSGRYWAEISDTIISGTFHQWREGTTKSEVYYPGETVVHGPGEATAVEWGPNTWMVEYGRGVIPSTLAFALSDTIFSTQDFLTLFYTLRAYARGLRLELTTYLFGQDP

Regarding `O=C(c1ccc(F)cc1)C1CCN([C@@H]2CCCC[C@H]2O)CC1` (racemic), the Ki in assay [1] was determined as 60.9 nM; in assay [2] it was 730 nM; in assay [5], 3240 nM. In addition, the Ratio Ki in the assay with PC-12 [3] was 0.2; with PC-12 [4] it was less than 0.1.
As to `O[C@@H]1CC=CC[C@H]1N1CCC(c2ccccc2)CC1` (racemic), the Ki was 5.8 nM in assay [1], 77.1 nM in assay [2], 18.4 nM in assay [5] and 0.34 nM in assay [6]. The Ratio Ki amounted to 4.2 in the assay with PC-12 [3] and 0.3 with PC-12 [4].
With `O=C(Nc1cccc2c1C[C@@H](N1CCC(c3ccccc3)CC1)[C@H](O)C2)c1ccc(F)cc1` (racemic), the results for the Ki in assay [1], in assay [2] and in assay [5] were 6430 nM, 3620 nM and 156 nM, respectively. The Ratio Ki with PC-12 [3] turned out to be 23.2; in the assay on PC-12 [4], 41.2.
Taken in the same sequence, the figures for `O=C(Nc1cccc2c1C[C@@H](N1CCC(Cc3ccccc3)CC1)[C@H](O)C2)c1ccc(F)cc1` (racemic) were 1770 nM, 2080 nM, 527 nM, 3.9 and 3.4.
The matching figures for `O=C(Nc1cccc2c1C[C@@H](O)[C@H](N1CCC(c3ccccc3)CC1)C2)c1ccc(F)cc1` (racemic): 626 nM, 1380 nM, 188 nM, 2.2 and 3.3.
The matching figures for `O[C@@H]1CCCC[C@H]1N1CCC(O)(c2ccccc2)CC1` (racemic): 454 nM, 1990 nM, 1000 nM, 1.9 and 0.4.
For `CC(=O)C1(c2ccccc2)CCN([C@@H]2CCCC[C@H]2O)CC1` (racemic), the Ki in assay [1] was determined as 22.5 nM; in assay [2], 164 nM; in assay [5], 1460 nM. The Ratio Ki was 0.1 in the assay on PC-12 [3] and less than 0.1 in the assay on PC-12 [4].
Taken in the same sequence, the figures for `O[C@@H]1CCCC[C@H]1N1CCC(c2ccccc2)(c2ccccc2)CC1` (racemic) were 43.2 nM, 1830 nM, 6710 nM, 0.3 and less than 0.1.
The matching figures for `O[C@@H]1CCCC[C@H]1N1CCC(Cc2ccccc2)CC1` (racemic): 20.1 nM, 108 nM, 647 nM, 0.2 and less than 0.1.
For `O[C@@H]1CC[C@@H](OCc2ccc(F)cc2)C[C@H]1N1CCC(c2ccccc2)CC1` (racemic), the Ki in assay [1] came out at 16.6 nM; in assay [2], 53.1 nM; in assay [5], 25.1 nM. Also, the Ratio Ki with PC-12 [3] came to 2.1; in the assay on PC-12 [4], 0.7.
With `O[C@@H]1CC[C@@H](OCc2ccc(F)cc2)C[C@H]1N1CCN(c2ccccc2)CC1` (racemic), the Ki in assay [1] worked out at 103 nM; in assay [2] it was 167 nM; in assay [5], 697 nM. In addition, the Ratio Ki is 0.24 in the assay with PC-12 [3] and 0.2 in the assay on PC-12 [4].
Taken in the same sequence, the figures for `O[C@@H]1CC[C@@H](OCc2ccc(F)cc2)C[C@H]1N1CC=C(c2ccccc2)CC1` (racemic) were 29.9 nM, 46.9 nM, 310 nM, 0.2 and less than 0.1.
Taken in the same sequence, the figures for `O[C@@H]1CC[C@@H](OCc2ccc(F)cc2)C[C@H]1N1CCC(O)(c2ccccc2)CC1` (racemic) were 47.3 nM, 134 nM, 316 nM, 0.4 and 0.2.
The matching figures for `CC(=O)C1(c2ccccc2)CCN([C@@H]2C[C@H](OCc3ccc(F)cc3)CC[C@H]2O)CC1` (racemic): 63.1 nM, 18.8 nM, 260 nM, less than 0.1 and 0.2.
Consider `O[C@@H]1CCCC[C@H]1N1CCN(c2ccccc2)CC1` (racemic), for which the Ki was 83.9 nM in assay [1], 695 nM in assay [2] and 838 nM in assay [5]. Moreover, the Ratio Ki was determined as 0.8 in the assay on PC-12 [3] and 0.1 in the assay on PC-12 [4].
Taken in the same sequence, the figures for `O[C@@H]1CCCC[C@H]1N1CC=C(c2ccccc2)CC1` (racemic) were 9.7 nM, 158 nM, 439 nM, 0.4 and less than 0.1.
With `O=C(c1ccc(F)cc1)C1CCN([C@@H]2Cc3ccccc3C[C@H]2O)CC1` (racemic), the Ki worked out at 215 nM in assay [1], 284 nM in assay [2], 24.4 nM in assay [5] and 2.7 nM in assay [6]. Moreover, the Ratio Ki with PC-12 [3] came to 1.6; in the assay on PC-12 [4], 8.8.
Turning to `Nc1cccc2c1C[C@@H](N1CCC(c3ccccc3)CC1)[C@H](O)C2` (racemic), the Ki in assay [1] amounted to 119 nM; in assay [2], 474 nM; in assay [5], 25.1 nM; in assay [6], 0.013 nM. The Ratio Ki is 18.9 in the assay with PC-12 [3] and 4.7 in the assay on PC-12 [4].
